According to ChEMBL document CHEMBL1201862, “PubChem BioAssay data set” (2004):
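Where inhibition never reached the appropriate level, the endpoint shown equals the highest concentration tested. Otherwise, values were interpolated linearly from a five-concentration, 48-hour dose response in 96-well plates. At the GI50, growth is halved.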 Active and inactive are the calls of the source. Rule as the data show it: active = GI50 up to about 1.1 µM and inactive = higher.

Experiments:
Assay in all cases: NCI tumour cell line growth inhibition, 48 h
SF-295 = test system: SF-295
SK-OV-3 = test system: SK-OV-3
786-0 = test system: 786-0
U-251 = test system: U-251
EKVX = test system: EKVX
SK-MEL-5 = test system: SK-MEL-5
UACC-257 = test system: UACC-257
BT-549 = test system: BT-549
DU-145 = test system: DU-145
KM12 = test system: KM12
ACHN = test system: ACHN
A549 = test system: A549
HCT-116 = test system: HCT-116
Malme-3M = test system: Malme-3M
NCI-H522 = test system: NCI-H522
OVCAR-3 = test system: OVCAR-3
TK-10 = test system: TK-10
MCF7 = test system: MCF7
SNB-19 = test system: SNB-19
SN12C = test system: SN12C
HCT-15 = test system: HCT-15
HOP-62 = test system: HOP-62
NCI-H226 = test system: NCI-H226
Hs-578T = test system: Hs-578T
LOX IMVI = test system: LOX IMVI
SF-539 = test system: SF-539
COLO 205 = test system: COLO 205
IGROV-1 = test system: IGROV-1
NCI/ADR-RES = test system: NCI/ADR-RES
SK-MEL-28 = test system: SK-MEL-28
OVCAR-5 = test system: OVCAR-5
MDA-N = test system: MDA-N
HL-60 = test system: HL-60
UO-31 = test system: UO-31
UACC-62 = test system: UACC-62
M14 = test system: M14
RPMI-8226 = test system: RPMI-8226
NCI-H460 = test system: NCI-H460
SF-268 = test system: SF-268
HT-29 = test system: HT-29
RXF 393 = test system: RXF 393
MDA-MB-231 = test system: MDA-MB-231
SNB-75 = test system: SNB-75
SW-620 = test system: SW-620
SK-MEL-2 = test system: SK-MEL-2
MOLT-4 = test system: MOLT-4
CCRF-CEM = test system: CCRF-CEM
MDA-MB-435 = test system: MDA-MB-435
K562 = test system: K562
OVCAR-4 = test system: OVCAR-4
NCI-H23 = test system: NCI-H23
OVCAR-8 = test system: OVCAR-8
CAKI-1 = test system: CAKI-1
PC-3 = test system: PC-3

Question: Which GI50 (SF-295) does the source give for `COC1OC2COC(=O)c3cc(O)c(O)c(O)c3-c3c(cc(O)c(O)c3O)C(=O)OC2C(O)C1O` (centres undefined) here?
Answer: Its GI50 is 18.9 µM (inactive).

Question: And the GI50 (SK-OV-3)?
Answer: The GI50 was > 100 µM (inactive).

Question: And the GI50 (786-0)?
Answer: The GI50 was 47.4 µM (inactive).

Question: What about the GI50 (U-251) of the same compound?
Answer: Its GI50 is 61.2 µM (inactive).

Question: And the GI50 (EKVX)?
Answer: The GI50 was > 100 µM (inactive).

Question: What about the GI50 (SK-MEL-5) of the same compound?
Answer: The GI50 was 84.7 µM (inactive).

Question: What about the GI50 (UACC-257) of the same compound?
Answer: The GI50 was > 100 µM (inactive).

Question: And the GI50 (BT-549)?
Answer: The GI50 was > 100 µM (inactive).

Question: And the GI50 (DU-145)?
Answer: Its GI50 is > 100 µM (inactive).

Question: What about the GI50 (KM12) of the same compound?
Answer: The GI50 was > 100 µM (inactive).

Question: And the GI50 (ACHN)?
Answer: Its GI50 is 77.8 µM (inactive).

Question: What about the GI50 (A549) of the same compound?
Answer: The GI50 was 72.6 µM (inactive).

Question: And the GI50 (HCT-116)?
Answer: The GI50 was 34.9 µM (inactive).

Question: What about the GI50 (Malme-3M) of the same compound?
Answer: The GI50 was > 100 µM (inactive).

Question: And the GI50 (NCI-H522)?
Answer: Its GI50 is 94.8 µM (inactive).

Question: And the GI50 (OVCAR-3)?
Answer: The GI50 was 80 µM (inactive).

Question: What about the GI50 (TK-10) of the same compound?
Answer: Its GI50 is > 100 µM (inactive).

Question: What about the GI50 (MCF7) of the same compound?
Answer: Its GI50 is 42.6 µM (inactive).

Question: What about the GI50 (SNB-19) of the same compound?
Answer: The GI50 was > 100 µM (inactive).

Question: And the GI50 (SN12C)?
Answer: The GI50 was 16.5 µM (inactive).

Question: What about the GI50 (HCT-15) of the same compound?
Answer: Its GI50 is over 100 µM.

Question: What about the GI50 (HOP-62) of the same compound?
Answer: Its GI50 is 53 µM (inactive).

Question: What about the GI50 (NCI-H226) of the same compound?
Answer: Its GI50 is > 100 µM (inactive).

Question: And the GI50 (Hs-578T)?
Answer: The GI50 was > 100 µM (inactive).

Question: And the GI50 (LOX IMVI)?
Answer: The GI50 was 23.2 µM (inactive).

Question: What about the GI50 (SF-539) of the same compound?
Answer: Its GI50 is > 100 µM (inactive).

Question: What about the GI50 (COLO 205) of the same compound?
Answer: The GI50 was 54.1 µM (inactive).

Question: What about the GI50 (IGROV-1) of the same compound?
Answer: The GI50 was > 100 µM (inactive).

Question: And the GI50 (NCI/ADR-RES)?
Answer: The GI50 was > 100 µM (inactive).

Question: And the GI50 (SK-MEL-28)?
Answer: Its GI50 is > 100 µM (inactive).

Question: And the GI50 (OVCAR-5)?
Answer: Its GI50 is 53.8 µM (inactive).

Question: And the GI50 (MDA-N)?
Answer: The GI50 was 24 µM (inactive).

Question: And the GI50 (HL-60)?
Answer: The GI50 was > 10 µM (inactive).

Question: And the GI50 (UO-31)?
Answer: Its GI50 is > 100 µM (inactive).

Question: What about the GI50 (UACC-62) of the same compound?
Answer: Its GI50 is 21.4 µM (inactive).

Question: What about the GI50 (M14) of the same compound?
Answer: Its GI50 is 43.9 µM (inactive).

Question: What about the GI50 (RPMI-8226) of the same compound?
Answer: The GI50 was 55.7 µM (inactive).

Question: What about the GI50 (NCI-H460) of the same compound?
Answer: The GI50 was 45.3 µM (inactive).

Question: And the GI50 (SF-268)?
Answer: Its GI50 is 64 µM (inactive).

Question: And the GI50 (HT-29)?
Answer: The GI50 was 34.4 µM (inactive).

Question: And the GI50 (RXF 393)?
Answer: The GI50 was > 100 µM (inactive).

Question: What about the GI50 (MDA-MB-231) of the same compound?
Answer: Its GI50 is > 100 µM (inactive).

Question: And the GI50 (SNB-75)?
Answer: The GI50 was 62.8 µM (inactive).

Question: What about the GI50 (SW-620) of the same compound?
Answer: The GI50 was 21.7 µM (inactive).

Question: And the GI50 (SK-MEL-2)?
Answer: Its GI50 is 84.5 µM (inactive).

Question: What about the GI50 (MOLT-4) of the same compound?
Answer: The GI50 was 28.6 µM (inactive).

Question: What about the GI50 (CCRF-CEM) of the same compound?
Answer: Its GI50 is 37.3 µM (inactive).

Question: What about the GI50 (MDA-MB-435) of the same compound?
Answer: The GI50 was 30.5 µM (inactive).

Question: What about the GI50 (K562) of the same compound?
Answer: The GI50 was 36.4 µM (inactive).

Question: What about the GI50 (OVCAR-4) of the same compound?
Answer: The GI50 was 31.5 µM (inactive).

Question: What about the GI50 (NCI-H23) of the same compound?
Answer: Its GI50 is > 100 µM (inactive).

Question: What about the GI50 (OVCAR-8) of the same compound?
Answer: The GI50 was 54.1 µM (inactive).

Question: And the GI50 (CAKI-1)?
Answer: Its GI50 is 63.8 µM (inactive).

Question: What about the GI50 (PC-3) of the same compound?
Answer: The GI50 was > 100 µM (inactive).
